# From patent US11072590B2, “1,4,7,10-tetrazacyclododecane based agents to target bacteria and its use” (HELMHOLTZ-ZENTRUM FUER INFEKTIONSFORSCHUNG GMBH, priority 2014, dated 2021)
# Like-named read-outs stand apart in the source and are kept apart here.
# Legend:
# Assay type in all cases: cell-based
# [1] = test system: Acinetobacter baumannii; experiment: Uptake in bacteria by confocal fluorescent microscopy; settings: 20 μM probe, 1 hour at 37° C., PBS
# Experimental: The uptake of coumarin 343, HHY-10 and HHY-11 was investigated in gram-negative bacteria Pseudomonas aeruginosa PA7 (DSM 24068), Acinetobacter baumannii (DSM 30007, ATCC 19606) and gram-positive bacteria Staphylococcus aureus MRSA (DSM 11822, ICB 25701). Gram-negative bacteria were cultured overnight in Mueller Hinton Broth (M-H Broth)+1% glucose (10 g/L) or Gram-positive bacteria were cultured overnight in trypticase soy yeast extract medium (TSY-Med) at 37° C. under 5% CO2 in an incubator shaker set at 180 rpm. Bacteria (from the overnight culture) were re-suspended in 10 mL of PBS buffer, to an optical density of 0.1 at 600 nm. The bacterial culture solution was transferred into 48 well plates, with each well containing 200 μL of bacteria, and 0.4 μL of either coumarin 343, HHY-10 and HHY-11 stock solutions (10 mM in PBS) were added, generating a 20 μM probe concentration. The bacteria were incubated with the probes for 1 hour at 37° C. under 5% CO2 in an incubator without shaking. The bacteria were harvested by centrifuging the bacterial solutions. The resulting pellets were washed 3 times with 200 μL PBS by resuspending the pellets in PBS and centrifuging. The washed bacterial pellets were transferred into a slice, then imaged using confocal fluorescent microscopy. The intensity of the green signal from coumarin presents the relevant amount of these probes taken by the bacteria.
# [2] = test system: P. aeruginosa PA01/pirA; experiment: Broth microdilution MIC, P. aeruginosa PA01/pirA mutant; settings: mutant with defect in ferric enterobactin receptor (pirA)
# Experimental: (§1) All liquids and media were sterilized by autoclaving (121° C., 15 min) before use. All aqueous solutions and media were prepared using distilled, deionized, and filtered water (Millipore Milli-Q Advantage A10 Water Purification System) Mueller-Hinton No. 2 broth (MHII broth; cation adjusted) was purchased from Sigma-Aldrich (St. Louis, Mo.). Iron-deficient (−Fe) MHII broth was prepared by adding 0.8 mL of a 1 mg/mL sterile aq. solution of 2,2′-bipyridine to 49.2 mL of MHII broth. Iron-rich (+Fe) MHII broth was prepared by adding 0.8 mL of a 1 mg/mL sterile aq. solution of FeCl3 to 49.2 mL of MH II broth.
# (§2) Antibacterial activity of the compounds was determined by measuring their minimum inhibitory concentrations (MIC90's) using the broth microdilution method according to the Clinical and Laboratory Standards Institute (CLSI, formerly the NCCLS) guidelines. Each well of a 96-well microtiter plate was filled with 40 μL of sterile broth media (−Fe or +Fe). Each test compound was dissolved in DMSO making a 10 mM solution, and then diluted with sterile broth media (−Fe or +Fe) to 75 or 150 μM. Exactly 80 μL of the compound solution was added to the first well of the microtiter plate and 1.5-fold serial dilutions were made down each row of the plate. Exactly 40 μL of bacterial inoculum (Acinetobacter baumannii, Pseudomonas aeruginosa, Staphylococcus aureus Starting Optical density (OD)=0.0005) was then added to each well giving a total volume of 80 μL/well. The plate was incubated at 37° C. for 48 h and then each well was examined for bacterial growth. The MIC90 was recorded as the lowest compound concentration (μM) required to inhibit 90% of bacterial growth as judged by turbidity of the culture media relative to a row of wells filled with a DMSO standard.
# [3] = test system: Pseudomonas aeruginosa PA7 (DSM 24068); experiment: Broth microdilution MIC, Pseudomonas aeruginosa
# Experimental: as §1, §2
# (§3) Compounds HHY-10 and HHY-11 were subjected to further assays to determine their minimum inhibitory concentrations (MIC) in both iron-rich and iron-deficient media (Table 1). […] Compounds 10 and 11 were also tested against Klebsiella pneumoniae (DSM 11678, ATCC 33495), which is able to synthesize and utilize enterobactin and its degraded product for iron uptake under iron-limited conditions. […] It appears that P. aeruginosa, A. baumannii, Straph aureus and K. pneumoniae, either induced or inherently, have different abilities to use triscatecholate as a siderophore for iron uptake. The inhibitory activities of vancomycin siderophore-DOTA conjugate HHY-30 have been analyzed under similar conditions.
# [4] = test system: Staphylococcus aureus MRSA (DSM 11822, ICB 25701); experiment: Broth microdilution MIC, Staphylococcus aureus
# Experimental: as §1, §2, §3
# [5] = test system: P. aeruginosa PA14/wt; experiment: Broth microdilution MIC, P. aeruginosa PA14/wt
# Experimental: as §1, §2
# [6] = test system: P. aeruginosa PAO01/fptA; experiment: Broth microdilution MIC, P. aeruginosa PAO01/fptA mutant; settings: mutation in pyochelin outer membrane receptor precursor
# Experimental: as §1, §2
# [7] = test system: Klebsiella pneumoniae (DSM 11678, ATCC 33495); experiment: Broth microdilution MIC, Klebsiella pneumoniae
# Experimental: as §1, §2, §3
# [8] = test system: Pseudomonas aeruginosa PA7, Acinetobacter baumannii, Staphylococcus aureus MRSA; experiment: Bacterial inhibition assays, across the bacteria tested
# Experimental: as §1
# Antibacterial activity of the compounds was determined by measuring their minimum inhibitory concentrations (MIC90's) using the broth microdilution method according to the Clinical and Laboratory Standards Institute (CLSI, formerly the NCCLS) guidelines. Each well of a 96-well microtiter plate was filled with 40 μL of sterile broth media (−Fe or +Fe). Each test compound was dissolved in DMSO making a 10 mM solution, and then diluted with sterile broth media (−Fe or +Fe) to 75 or 150 μM. […]
# Compounds HHY-10 and HHY-11 were subjected to further assays to determine their minimum inhibitory concentrations (MIC) in both iron-rich and iron-deficient media (Table 1). […] The inhibitory activities of vancomycin siderophore-DOTA conjugate HHY-30 have been analyzed under similar conditions.
# [9] = test system: P. aeruginosa PA07/wt; experiment: Broth microdilution MIC, P. aeruginosa PA07/wt
# Experimental: as §1, §2
# [10] = test system: Acinetobacter baumannii (DSM 30007, ATCC 19606); experiment: Broth microdilution MIC, Acinetobacter baumannii
# Experimental: as §1, §2, §3
# [11] = test system: P. aeruginosa PA01/wt; experiment: Broth microdilution MIC, P. aeruginosa PA01/wt
# Experimental: as §1, §2
# [12] = Fe− (iron-deficient MHII broth)
structure (smiles),measurement,setting,value
CC(=O)Oc1cccc(C(=O)NCCNC(=O)CN2CCN(CC(=O)NCCCOCCOCCOCCCNC(=O)c3cc4cc5c6c(c4oc3=O)CCCN6CCC5)CCN(CC(=O)NCCNC(=O)c3cccc(OC(C)=O)c3OC(C)=O)CCN(CC(=O)NCCNC(=O)c3cccc(OC(C)=O)c3OC(C)=O)CC2)c1OC(C)=O [HHY-10],uptake: fluorescence (green signal from coumarin) in bacteria,[1],obvious fluorescent signals
same,MIC,"[2]; Pseudomonas aeruginosa, PA01/PIRA, Fe+ (iron-rich MHII broth)",> 100 µM
same,MIC,"[2]; Pseudomonas aeruginosa, PA01/PIRA, Fe− (iron-deficient MHII broth)",40 µM
same,MIC,"[3]; Pseudomonas aeruginosa, DSM24068, Fe+ (iron-rich MHII broth)",> 100 µM
same,MIC,"[3]; Pseudomonas aeruginosa, DSM24068, Fe− (iron-deficient MHII broth)",33 µM
same,MIC,"[4]; Staphylococcus aureus, Fe+ (iron-rich MHII broth)",> 100 µM
same,MIC,"[4]; Staphylococcus aureus, Fe− (iron-deficient MHII broth)",28 µM
same,MIC,"[5]; Pseudomonas aeruginosa, PA14, Fe+ (iron-rich MHII broth)",> 100 µM
same,MIC,"[5]; Pseudomonas aeruginosa, PA14, Fe− (iron-deficient MHII broth)",40 µM
same,MIC,"[6]; Pseudomonas aeruginosa, PAO01/FPTA, Fe+ (iron-rich MHII broth)",> 100 µM
same,MIC,"[6]; Pseudomonas aeruginosa, PAO01/FPTA, Fe− (iron-deficient MHII broth)",40 µM
same,MIC,[7]; [12],>100 µM
same,MIC,[7]; Klebsiella pneumoniae,> 100 µM
same,MIC,"[7]; Klebsiella pneumoniae, read-out: MIC (inactive against K. pneumoniae)",> 100 µM
same,antibacterial activity,[8]; iron-deficient medium,media antibacterial activity
same,MIC,"[9]; Pseudomonas aeruginosa, PA07/WT, Fe+ (iron-rich MHII broth)",> 100 µM
same,MIC,"[9]; Pseudomonas aeruginosa, PA07/WT, Fe− (iron-deficient MHII broth)",40 µM
same,MIC,"[10]; Acinetobacter baumannii, Fe+ (iron-rich MHII broth)",> 100 µM
same,MIC,"[10]; Acinetobacter baumannii, Fe− (iron-deficient MHII broth)",15 µM
same,MIC,"[11]; Pseudomonas aeruginosa, PA01/WT, Fe+ (iron-rich MHII broth)",> 100 µM
same,MIC,"[11]; Pseudomonas aeruginosa, PA01/WT, Fe− (iron-deficient MHII broth)",40 µM
"O=C(O)c1cc2cc3c4c(c2oc1=O)CCCN4CCC3 [Coumarin 343, reference compound]",uptake: fluorescence (green signal from coumarin) in bacteria,[1],would not lead to obvious fluorescence
same,MIC,[2]; Fe+ (iron-rich MHII broth),>100 µM
same,MIC,[2]; [12],>100 µM
same,MIC,[3]; Fe+ (iron-rich MHII broth),>100 µM
same,MIC,[3]; [12],>100 µM
same,MIC,[4]; Fe+ (iron-rich MHII broth),>100 µM
same,MIC,[4]; [12],>100 µM
same,MIC,[5]; Fe+ (iron-rich MHII broth),>100 µM
same,MIC,[5]; [12],>100 µM
same,MIC,[6]; Fe+ (iron-rich MHII broth),>100 µM
same,MIC,[6]; [12],>100 µM
same,MIC,[7]; Fe+ (iron-rich MHII broth),>100 µM
same,MIC,[7]; [12],>100 µM
same,MIC (generally inactive),[8]; across bacteria,> 100 µM
same,MIC,[9]; Fe+ (iron-rich MHII broth),>100 µM
same,MIC,[9]; [12],>100 µM
same,MIC,[10]; Fe+ (iron-rich MHII broth),>100 µM
same,MIC,[10]; [12],>100 µM
same,MIC,[11]; Fe+ (iron-rich MHII broth),>100 µM
same,MIC,[11]; [12],>100 µM
